These results are taken from ChEMBL document CHEMBL5625165, “Nine-valent oleanolic acid conjugates as potent inhibitors blocking the entry of influenza A virus” (Eur J Med Chem, 2023).

Activity calls are given as the source filed them. The calls are words filed in the database; no cut-off is given here. Some results are limits rather than exact numbers.

Data set [1] concerns Erythrocyte. Briefly: Hemolytic activity in rabbit RBC assessed as hemolysis at 300 uM incubated for 2 hr by spectrophotometry analysis. The class given is toxicity, cell-based, Oryctolagus cuniculus.
Data set [2] deals with Influenza A virus. The data set can be described thus: Antiviral activity against influenza A virus A/WSN/33(H1N1) infected in MDCK cells assessed as reduction in M2 expression measured upto 2 hrs by time of addition assay. The class given is functional. More on the design: scale not given: the % may be the effect or the level left.
Data set [3] relates to Influenza A virus. Briefly: Antiviral activity against influenza A virus B/Sichuan/531/2018 (Victoria) infected in MDCK cells assessed as inhibition of viral growth. The class given is functional, organism-based.
Data set [4] has as its system Influenza A virus. The data set can be described thus: Antiviral activity against influenza A virus B/Darwin/58/2019 (Yamagata) infected in MDCK cells assessed as inhibition of viral growth. The class given is functional, organism-based.
Data set [5] deals with Influenza A virus. Briefly: Antiviral activity against influenza A virus A/WSN/33(H1N1) infected in MDCK cells assessed as inhibition of viral-induced cytopathic effect incubated for 48 hrs by microscopic analysis. The class given is functional, organism-based.
Data set [6] can be described thus: Selectivity index, ratio of CC50 for cytotoxicity against dog MDCK cells assessed as reduction in cell viability to IC50 for antiviral activity against influenza A virus B/Sichuan/531/2018 (Victoria) infected in MDCK cells assessed as inhibition of viral growth. The data set is classed as toxicity, cell-based. The conditions noted are these: read-out: Ratio CC50/IC50.

The subject of data set [7] is Influenza A virus. The data set can be described thus: Antiviral activity against influenza A virus A/WSN/33(H1N1) infected in MDCK cells assessed as inhibition of viral growth at 30 uM incubated for 48 hrs by microscopic analysis. More on the design: scale not given: the % may be the effect or the level left. The class given is functional.
The nature of data set [8]: Selectivity index, ratio of CC50 for cytotoxicity against dog MDCK cells assessed as reduction in cell viability to IC50 for antiviral activity against influenza A virus B/Darwin/58/2019 (Yamagata) infected in MDCK cells assessed as inhibition of viral growth. The conditions noted are these: read-out: Ratio CC50/IC50. The class given is toxicity, cell-based.
Data set [9] can be described thus: Cytotoxicity against dog MDCK cells assessed as reduction in cell viability incubated for 48 hrs by celltiter-glo assay. The class given is toxicity, cell-based, Canis lupus familiaris.
Data set [10] in a line: Selectivity index, ratio of CC50 for cytotoxicity against dog MDCK cells assessed as reduction in cell viability to IC50 for antiviral activity against influenza A virus A/WSN/33(H1N1) infected in MDCK cells assessed as inhibition of viral-induced cytopathic effect. The data set is classed as toxicity, cell-based. To be noted: read-out: Ratio CC50/IC50.
Data set [11] is described as follows: Cytotoxicity against dog MDCK cells assessed as cell viability at 30 uM incubated for 48 hrs by celltiter-glo assay. The conditions noted are these: read-out: Activity. The class given is toxicity, cell-based, Canis lupus familiaris.
For data set [12], the system named is Erythrocyte. Briefly: Inhibition of hemagglutination in chicken RBC cells infected with Influenza A virus A/WSN/33 (H1N1) assessed as reduction in virus-induced agglutination of erythrocytes at 0.24 to 15 uM incubated for 24 mins. The class given is functional, cell-based. The conditions noted are these: Gallus gallus, dose 0.24-15 µM.
The nature of data set [13]: Binding affinity to influenza A virus H1N1 (A/michigan/45/2015) assessed as dissociation constant by SPR analysis.
Data set [14] has as its system Influenza A virus. Briefly: Antiviral activity against influenza A virus A/WSN/33(H1N1) infected in MDCK cells assessed as inhibition of virus-induced cytopathic effect at 30 uM incubated for 48 hrs by microscopic analysis. The class given is functional, organism-based.

Turning to `CC1(C)CC[C@]2(C(=O)NCCOCCn3cc(COc4cc(C(=O)NCCNC(=O)OCCn5cc(COc6cc(OCc7cn(CCOC(=O)NCCNC(=O)c8cc(OCc9cn(CCOCCNC(=O)[C@]%10%11CCC(C)(C)C[C@H]%10C%10=CC[C@@H]%12[C@@]%13(C)CC[C@H](O)C(C)(C)[C@@H]%13CC[C@@]%12(C)[C@]%10(C)CC%11)nn9)c(OCc9cn(CCOCCNC(=O)[C@]%10%11CCC(C)(C)C[C@H]%10C%10=CC[C@@H]%12[C@@]%13(C)CC[C@H](O)C(C)(C)[C@@H]%13CC[C@@]%12(C)[C@]%10(C)CC%11)nn9)c(OCc9cn(CCOCCNC(=O)[C@]%10%11CCC(C)(C)C[C@H]%10C%10=CC[C@@H]%12[C@@]%13(C)CC[C@H](O)C(C)(C)[C@@H]%13CC[C@@]%12(C)[C@]%10(C)CC%11)nn9)c8)nn7)cc(OCc7cn(CCOC(=O)NCCNC(=O)c8cc(OCc9cn(CCOCCNC(=O)[C@]%10%11CCC(C)(C)C[C@H]%10C%10=CC[C@@H]%12[C@@]%13(C)CC[C@H](O)C(C)(C)[C@@H]%13CC[C@@]%12(C)[C@]%10(C)CC%11)nn9)c(OCc9cn(CCOCCNC(=O)[C@]%10%11CCC(C)(C)C[C@H]%10C%10=CC[C@@H]%12[C@@]%13(C)CC[C@H](O)C(C)(C)[C@@H]%13CC[C@@]%12(C)[C@]%10(C)CC%11)nn9)c(OCc9cn(CCOCCNC(=O)[C@]%10%11CCC(C)(C)C[C@H]%10C%10=CC[C@@H]%12[C@@]%13(C)CC[C@H](O)C(C)(C)[C@@H]%13CC[C@@]%12(C)[C@]%10(C)CC%11)nn9)c8)nn7)c6)nn5)cc(OCc5cn(CCOCCNC(=O)[C@]67CCC(C)(C)C[C@H]6C6=CC[C@@H]8[C@@]9(C)CC[C@H](O)C(C)(C)[C@@H]9CC[C@@]8(C)[C@]6(C)CC7)nn5)c4OCc4cn(CCOCCNC(=O)[C@]56CCC(C)(C)C[C@H]5C5=CC[C@@H]7[C@@]8(C)CC[C@H](O)C(C)(C)[C@@H]8CC[C@@]7(C)[C@]5(C)CC6)nn4)nn3)CC[C@]3(C)C(=CC[C@@H]4[C@@]5(C)CC[C@H](O)C(C)(C)[C@@H]5CC[C@]43C)[C@@H]2C1`, the Activity entry is “Non-Toxic” with Erythrocyte [1], more than 90% with Influenza A virus [2] and 100% in the data set with Influenza A virus [7]. In addition, the figures for the IC50 with Influenza A virus [3], with Influenza A virus [4] and in the data set on Influenza A virus [5] were 27.2 µM, 9.38 µM and 7.93 µM, respectively. Further, the figures for the selectivity ratio in [6], in [8] and in data set [10] were more than 1.1, more than 3.2 and more than 3.78, respectively. Moreover, in [9], the CC50 at 48 h was more than 30 µM. The viability at 48 h, 30 µM in data set [11] was 96.5%. Moreover, the inhibition entry in the data set with Erythrocyte [12] is “Active”.

Regarding `CC1(C)CC[C@]2(C(=O)NCCOCCOCCOCCn3cc(COc4cc(C(=O)NCCOCCOCCOCCn5cc(COc6cc(OCc7cn(CCOCCOCCOCCNC(=O)c8cc(OCc9cn(CCOCCOCCOCCNC(=O)[C@]%10%11CCC(C)(C)C[C@H]%10C%10=CC[C@@H]%12[C@@]%13(C)CC[C@H](O)C(C)(C)[C@@H]%13CC[C@@]%12(C)[C@]%10(C)CC%11)nn9)c(OCc9cn(CCOCCOCCOCCNC(=O)[C@]%10%11CCC(C)(C)C[C@H]%10C%10=CC[C@@H]%12[C@@]%13(C)CC[C@H](O)C(C)(C)[C@@H]%13CC[C@@]%12(C)[C@]%10(C)CC%11)nn9)c(OCc9cn(CCOCCOCCOCCNC(=O)[C@]%10%11CCC(C)(C)C[C@H]%10C%10=CC[C@@H]%12[C@@]%13(C)CC[C@H](O)C(C)(C)[C@@H]%13CC[C@@]%12(C)[C@]%10(C)CC%11)nn9)c8)nn7)cc(OCc7cn(CCOCCOCCOCCNC(=O)c8cc(OCc9cn(CCOCCOCCOCCNC(=O)[C@]%10%11CCC(C)(C)C[C@H]%10C%10=CC[C@@H]%12[C@@]%13(C)CC[C@H](O)C(C)(C)[C@@H]%13CC[C@@]%12(C)[C@]%10(C)CC%11)nn9)c(OCc9cn(CCOCCOCCOCCNC(=O)[C@]%10%11CCC(C)(C)C[C@H]%10C%10=CC[C@@H]%12[C@@]%13(C)CC[C@H](O)C(C)(C)[C@@H]%13CC[C@@]%12(C)[C@]%10(C)CC%11)nn9)c(OCc9cn(CCOCCOCCOCCNC(=O)[C@]%10%11CCC(C)(C)C[C@H]%10C%10=CC[C@@H]%12[C@@]%13(C)CC[C@H](O)C(C)(C)[C@@H]%13CC[C@@]%12(C)[C@]%10(C)CC%11)nn9)c8)nn7)c6)nn5)cc(OCc5cn(CCOCCOCCOCCNC(=O)[C@]67CCC(C)(C)C[C@H]6C6=CC[C@@H]8[C@@]9(C)CC[C@H](O)C(C)(C)[C@@H]9CC[C@@]8(C)[C@]6(C)CC7)nn5)c4OCc4cn(CCOCCOCCOCCNC(=O)[C@]56CCC(C)(C)C[C@H]5C5=CC[C@@H]7[C@@]8(C)CC[C@H](O)C(C)(C)[C@@H]8CC[C@@]7(C)[C@]5(C)CC6)nn4)nn3)CC[C@]3(C)C(=CC[C@@H]4[C@@]5(C)CC[C@H](O)C(C)(C)[C@@H]5CC[C@]43C)[C@@H]2C1`, the Activity in the data set on Influenza A virus [2] is given as more than 90%; in the data set on Influenza A virus [7] it was 76.88%. In addition, the IC50 in the data set with Influenza A virus [3] was 33.5 µM; with Influenza A virus [5] it was 5.23 µM. Moreover, the Kd in data set [13] was 12.9 µM. Also, the selectivity ratio in [6] is more than 0.9; in data set [10] it was more than 5.74. The result in the data set on Influenza A virus [14] was Active. Further, in data set [9], the CC50 at 48 h is more than 30 µM. In addition, the viability at 48 h, 30 µM in [11] amounted to 100%. Besides, in the data set with Erythrocyte [12], the inhibition result was “Active”.
